These results are taken from US20220332706A1, “CRYSTALLINE FORMS OF A JAK2 INHIBITOR” (Impact Biomedicines, Inc., priority 2019, published 2022).

Values after ≈ are worked out from the molar mass of the structure shown. Like-named read-outs stand apart in the source and are kept apart here. Some results are limits rather than exact numbers.

Type in all cases: physicochemical
A short description of series [1]: Solubility assessment, visually estimated by dosing solvent aliquots into 10.0 mg API. As to conditions: thermodynamic from solid. As to the method:
Solubility was assessed in an array of diverse solvents in order to facilitate the selection of solvent systems and corresponding dosing strategies for the subsequent crystal-form screening experiments.

A short description of series [2]: Relative stability (competitive ripening) study of Forms A and B. As to conditions: for Final Form Observed: seven days, suspension of ~10 mg Form A and ~10 mg Form B. As to the method: Saturated suspensions of Form A were prepared by stirring excess Form A in the specified solvent system. The suspension was stirred overnight at 25° C. A clarifying filtration was performed and the filtrate was added to a 2 mL vial containing ˜10 mg of Form A and ˜10 mg of Form B. The resulting suspensions were stirred at 25° C. for seven days, isolated, dried under vacuum for 45 minutes, and analyzed by FT-Raman.

The nature of series [3]: Moisture sorption/desorption isotherms (DVS). As to conditions: 25° C., first sorption cycle 0 to 75% RH, desolvation with solvent exchange induced by water vapour. The method, then: Moisture sorption/desorption isotherms. All experiments were performed on a DVS-1 automated gravimetric vapour sorption analyser (Surface Measurement Systems Ltd., London, UK). The DVS measures the uptake and loss of vapour gravimetrically using a Cahn D200 recording ultra-microbalance with a mass resolution of ±0.1 μg. A controlled relative humidity is generated by mixing different proportions of dry and water saturated carrier gas streams (monitored by mass flow controllers). The temperature was maintained constant, ±0.1° C., by enclosing the entire system in a temperature-controlled incubator. A sample size around 10 mg was used. Prior to being exposed to any water vapour the samples were dried at 0% relative humidity (RH) to remove any surface water present and establish a dry, baseline mass. […] Two consecutive cycles were recorded. From the complete moisture sorption and desorption profile an isotherm was calculated using the DVS Advanced Analysis Suite v3.6. […]
DVS curves are carried out at 25° C. on hexafluoroisopropanol solvate (FIG. 18). After 6 hours under nitrogen a weight loss of 5% is recorded (a partial desolvation is observed with a pre-treatment at 25° C.). During the first sorption cycle, an important weight loss is recorded between 0 and 75% RH (around 30%). […]

The nature of series [4]: Characterization of crystal forms: behaviour under ambient conditions.

The term solubility denotes how much of the substance goes into solution per volume. Consider `Cc1cnc(Nc2ccc(OCCN3CCCC3)cc2)nc1Nc1cccc(S(=O)(=O)NC(C)(C)C)c1` [Form A], for which the solubility is at most 5000 µg/mL in series [1] (all other solvents evaluated (of 12; not DMSO, MeOH, water), organic solvent or mixture, in all other solvents evaluated, read-out: low solubility); below 5000 µg/mL in series [1] (organic solvent or mixture, DCM, 40° C., read-out: Solubility at 40° C.); below 5000 µg/mL in series [1] (organic solvent or mixture, DCM, RT, read-out: Solubility at RT); above 400000 µg/mL in series [1] (organic solvent or mixture, DMSO, RT, read-out: Solubility at RT); below 5000 µg/mL in series [1] (organic solvent or mixture, EtOAc, 40° C., read-out: Solubility at 40° C.); below 5000 µg/mL in series [1] (organic solvent or mixture, EtOAc, RT, read-out: Solubility at RT). In addition, the solubility in series [1] (organic solvent or mixture, IPA, 40° C., read-out: Solubility at 40° C.) is below 5000 µg/mL; in series [1] (organic solvent or mixture, IPA, RT, read-out: Solubility at RT), below 5000 µg/mL; in series [1] (organic solvent or mixture, IPA:water (9:1) v/v, 40° C., read-out: Solubility at 40° C.), above 5000 µg/mL; in series [1] (organic solvent or mixture, IPA:water (9:1) v/v, RT, read-out: Solubility at RT), below 5000 µg/mL; in series [1] (organic solvent or mixture, IPE, 40° C., read-out: Solubility at 40° C.) it was below 5000 µg/mL; in series [1] (organic solvent or mixture, IPE, RT, read-out: Solubility at RT), below 5000 µg/mL. In addition, the solubility in series [1] (organic solvent or mixture, MTBE, 40° C., read-out: Solubility at 40° C.) was below 5000 µg/mL; in series [1] (organic solvent or mixture, MTBE, RT, read-out: Solubility at RT), below 5000 µg/mL; in series [1] (organic solvent or mixture, MeCN, 40° C., read-out: Solubility at 40° C.), below 5000 µg/mL; in series [1] (organic solvent or mixture, MeCN, RT, read-out: Solubility at RT), below 5000 µg/mL; in series [1] (organic solvent or mixture, MeOH, RT, read-out: Solubility at RT), above 400000 µg/mL; in series [1] (organic solvent or mixture, THF, 40° C., read-out: Solubility at 40° C.), below 5000 µg/mL. Also, the solubility was below 5000 µg/mL in series [1] (organic solvent or mixture, THF, RT, read-out: Solubility at RT); below 5000 µg/mL in series [1] (organic solvent or mixture, Toluene, 40° C., read-out: Solubility at 40° C.); below 5000 µg/mL in series [1] (organic solvent or mixture, Toluene, RT, read-out: Solubility at RT); 100000 to 400000 µg/mL (≈ 191 to 762 mM) in series [1] (Water, RT, read-out: Solubility at RT); above 100000 µg/mL in series [1] (in DMSO, MeOH, and water). The “relative stability of hydrates” value in series [2] (25° C., over the entire water activity range) was “stable hydrate”. Also, the “Final Form Observed” value was “Form A” in series [2] (Acetone:Water (83:17), water activity 0.75, 25 °C); “Form A” in series [2] (Ethanol, water activity 0, 25 °C); “Form A” in series [2] (Methanol:Water (73:27), water activity 0.5, 25 °C); “Form A” in series [2] (Water, water activity 1, 25 °C).
On to `Cc1cnc(Nc2ccc(OCCN3CCCC3)cc2)nc1Nc1cccc(S(=O)(=O)NC(C)(C)C)c1` [Form H], for which, in series [3], the “form change during DVS” value is “transform into Form B”.
As for `Cc1cnc(Nc2ccc(OCCN3CCCC3)cc2)nc1Nc1cccc(S(=O)(=O)NC(C)(C)C)c1` [Form I], the “physical stability of the solvate” value in series [4] is given as “efflorescent solvate”.
